Reference: patent US5352659A, “Endothelin analogs and uses thereof” (Takeda Chemical Industries, priority 1991, dated 1994)
Where two headings read alike, the source gives them in different places. Bridge positions count the residues as written; N and C are the ends. Square brackets hold non-standard residues; d marks the D form. Peptide text beside a SMILES is read from it. tBuAla = CC(C)(C)C[C@H](N)C(=O)O; Nle = CCCC[C@H](N)C(=O)O; Mpa = O=C(O)CCS

Tests used:
[1] = test system: porcine coronary artery; test: Constrictor activity on porcine coronary smooth muscles; conditions: for Maximum constriction (% 60 mM KCl): porcine coronary artery strips, normalized to 60 mM KCl response; for Constrictor activity (specific activity): relative to ET-1 = 100
Experimental: (§1) Spiral strips 2 mm×15 mm prepared from the coronary right ramus circumflexus from which the adventitial connective tissues and the endothelial cells were removed were set to 4 ml organ baths. The tension of each strip was detected by a force displacement transducer UL-10GR (Minebea), and recorded by a polygraph (NEC Sanei). The organ baths were maintained at 37° C., and filled with a Krebs-Henseleit solution (composition: 118 mM NaCl, 4.7 mM KCl, 2.5 mM CaCl2, 1.2 mM KH2 PO4, 25.0 mM NaHCO3, 1.2 mM MgSO4, 10.0 mM glucose) gassed with 95% O2 and 5% CO2.
(§2) A tension of 1.25 to 1.5 g was applied to each of the strips, followed by equilibration for 1.5 hours. 60 mM KCl was repeatedly applied thereto at intervals of 30 minutes until the constriction response became constant. After additional equilibration for 1.5 hours, a sample for assay was given thereto. The constriction of the strips was normalized by the constriction response of the individual strips to 60 mM KCl and statistically processed.
(2) As to the antagonistic property of the peptides of the present invention to endothelin, the affinity for an endothelin receptor and the constrictor activity on porcine coronary smooth muscles (according to the method described in (1) described above) were assayed. The affinity for the receptor was assayed by the following method.

[2] = test system: endothelin receptor; test: Assay of affinity for receptor (inhibition of 125I-ET-1 binding to porcine myocardial membrane fraction); conditions: for Receptor binding activity (specific activity): relative to ET-1 = 100
Experimental: Assay of Affinity for Receptor
A membrane fraction prepared from the porcine heart was diluted to 0.15 mg/ml by using a buffer solution for assay, and 100 μl of the resulting suspension of the membrane fraction was poured into each assay tube to use for assay. To this suspension of the membrane fraction was added 2 μl of 5 nM ^125 I labeled endothelin-1 solution. Further, 3 μl of a test peptide solution was added thereto, followed by incubation at a temperature of 25° C. for 1 hour. Then, the resulting suspension was diluted with 900 μl of the buffer solution for assay cooled with ice, and thereafter separated into a supernatant and a precipitate by centrifugation at 12,000×g for 10 minutes. Cell membranes and an endothelin receptor embedded therein were contained in the precipitate, and radioactive iodine-labeled endothelin combined with the receptor was also recovered in the precipitate. Accordingly, the amount of radioactive iodine-labeled endothelin combined with the endothelin receptor was determined by measuring the amount of radioactive iodine contained in the precipitate with a gamma-ray counter.

[3] = test system: porcine coronary smooth muscles
Experimental: (1) Assay of Constrictor Suppressing Activity on Porcine Coronary Smooth Muscles
as §1, §2
pA2 is a negative logarithm value of a molar concentration of a competitive antagonist necessary for shifting in parallel a dose response curve for an active drug (for example, ET-1) alone to the high dose side by a factor of 2.

[4] = against cumulative endothelin-1, porcine coronary smooth muscles

Receptor binding activity (specific activity) [2] | SMILES | Maximum constriction (% 60 mM KCl) [1] [% 60 mM KCl] | Constrictor activity (specific activity) ([1]; porcine coronary artery) | Relative potency [3] | pA2 [3] | pA2 [3, 4] | EC50 ([1]; porcine coronary artery, read-out: EC50 (% KCl), concentration which induces 50% of the constriction of the porcine coronary artery due to 60 mM KCl) [nM] | IC50 ([2]; read-out: IC50, concentration required to prevent 50% of the binding of I125-ET1 to the porcine myocardial membrane fraction) [nM]
16 | CC[C@H](C)[C@H](NC(=O)[C@H](CC(C)C)NC(=O)[C@@H](NC(=O)[C@H](CC(C)C)NC(=O)[C@H](Cc1c[nH]cn1)NC(=O)[C@@H]1CSSCCC(=O)N[C@@H](CO)C(=O)N[C@H]2CSSC[C@H](NC(=O)[C@H](CCC(=O)O)NC(=O)[C@H](CCCCN)NC(=O)[C@H](CC(=O)O)NC(=O)[C@H](CCSC)NC(=O)[C@H](CC(C)C)NC(=O)[C@H](CO)NC(=O)[C@H](CO)NC2=O)C(=O)N[C@@H](C(C)C)C(=O)N[C@@H](Cc2ccc(O)cc2)C(=O)N[C@@H](Cc2ccccc2)C(=O)N1)[C@@H](C)O)C(=O)N[C@@H](Cc1c[nH]c2ccccc12)C(=O)O [Example 11, [Mpr^1, Thr^18, Leu^19]-ET-1] ([Mpa]SCSSLMDKECVYFCHLTLIW-OH; disulfide 1-15, 3-11) | 1 | < 0.1 | 6 | 6.5 | – | – | –
4.0 | CC[C@H](C)[C@H](NC(=O)[C@H](CC(C)C)NC(=O)[C@@H](NC(=O)[C@H](CC(C)C)NC(=O)[C@H](Cc1c[nH]cn1)NC(=O)[C@@H]1CSSC[C@H](N)C(=O)N[C@@H]([C@@H](C)O)C(=O)N[C@H]2CSSC[C@H](NC(=O)[C@H](CCC(=O)O)NC(=O)[C@H](CCCCN)NC(=O)[C@H](CC(=O)O)NC(=O)[C@H](CCCCN)NC(=O)[C@H](Cc3ccc(O)cc3)NC(=O)[C@H]([C@@H](C)O)NC(=O)[C@H](Cc3ccccc3)NC2=O)C(=O)N[C@@H](C(C)C)C(=O)N[C@@H](Cc2ccc(O)cc2)C(=O)N[C@@H](Cc2ccc(O)cc2)C(=O)N1)[C@@H](C)O)C(=O)N[C@@H](Cc1c[nH]c2ccccc12)C(=O)O [Example 9, [Thr^18, Leu^19]-ET-3] (H-CTCFTYKDKECVYYCHLTLIW-OH; disulfide 1-15, 3-11) | 12 | < 0.1 | – | – | – | – | –
11 | CC[C@H](C)[C@H](NC(=O)[C@H](CC(C)C)NC(=O)[C@@H](NC(=O)[C@H](CC(C)C)NC(=O)[C@H](Cc1c[nH]cn1)NC(=O)[C@@H]1CSSC[C@H](N)C(=O)N[C@@H](CO)C(=O)N[C@H]2CSSC[C@H](NC(=O)[C@H](CCC(=O)O)NC(=O)[C@H](CCCCN)NC(=O)[C@H](CC(=O)O)NC(=O)[C@H](CCSC)NC(=O)[C@H](C)NC(=O)[C@H](CO)NC(=O)[C@H](CO)NC2=O)C(=O)N[C@@H](C(C)C)C(=O)N[C@@H](Cc2ccc(O)cc2)C(=O)N[C@@H](Cc2ccccc2)C(=O)N1)[C@@H](C)O)C(=O)N[C@@H](Cc1c[nH]c2ccccc12)C(=O)O [Example 15, [Ala^6, Thr^18, Leu^19]-ET-1] (H-CSCSSAMDKECVYFCHLTLIW-OH; disulfide 1-15, 3-11) | 7 | < 0.1 | 6 | 6.5 | – | – | –
12 | CC[C@H](C)[C@H](NC(=O)[C@H](CC(C)C)NC(=O)[C@H](CC(N)=O)NC(=O)[C@H](CC(C)C)NC(=O)[C@H](Cc1c[nH]cn1)NC(=O)[C@@H]1CSSC[C@H](N)C(=O)N[C@@H](CO)C(=O)N[C@H]2CSSC[C@H](NC(=O)[C@H](CCC(=O)O)NC(=O)[C@H](CCCCN)NC(=O)[C@H](CC(=O)O)NC(=O)[C@H](CCSC)NC(=O)[C@H](CC(C)C)NC(=O)[C@H](CO)NC(=O)[C@H](CO)NC2=O)C(=O)N[C@@H](C(C)C)C(=O)N[C@@H](Cc2ccc(O)cc2)C(=O)N[C@@H](Cc2ccccc2)C(=O)N1)C(=O)N[C@@H](Cc1c[nH]c2ccccc12)C(=O)O [Example 7, [Asn^18, Leu^19]-ET-1] (H-CSCSSLMDKECVYFCHLNLIW-OH; disulfide 1-15, 3-11) | 4 | < 0.1 | – | – | – | – | –
27 | CCCC[C@@H]1NC(=O)[C@H](CC(C)C)NC(=O)[C@H](CO)NC(=O)[C@H](CO)NC(=O)[C@@H]2CSSC[C@H](NC(=O)[C@H](CCC(=O)O)NC(=O)[C@H](CCCCN)NC(=O)[C@H](CC(=O)O)NC1=O)C(=O)N[C@@H](C(C)C)C(=O)N[C@@H](Cc1ccc(O)cc1)C(=O)N[C@@H](Cc1ccccc1)C(=O)N[C@H](C(=O)N[C@@H](Cc1c[nH]cn1)C(=O)N[C@@H](CC(C)C)C(=O)N[C@H](C(=O)N[C@@H](CC(C)C)C(=O)N[C@H](C(=O)N[C@@H](Cc1c[nH]c3ccccc13)C(=O)O)[C@@H](C)CC)[C@@H](C)O)CSSC[C@H](N)C(=O)N[C@@H](CO)C(=O)N2 [Example 17, [Nle^7, Thr^18, Leu^19]-ET-1] (H-CSCSSL[Nle]DKECVYFCHLTLIW-OH; disulfide 1-15, 3-11) | 9 | < 0.1 | – | – | – | – | –
1.6 | CC[C@H](C)[C@H](NC(=O)[C@H](CC(N)=O)NC(=O)[C@@H](NC(=O)[C@H](CC(C)C)NC(=O)[C@H](Cc1c[nH]cn1)NC(=O)[C@@H]1CSSC[C@H](N)C(=O)N[C@@H](CO)C(=O)N[C@H]2CSSC[C@H](NC(=O)[C@H](CCC(=O)O)NC(=O)[C@H](CCCCN)NC(=O)[C@H](CC(=O)O)NC(=O)[C@H](CCSC)NC(=O)[C@H](CC(C)C)NC(=O)[C@H](CO)NC(=O)[C@H](CO)NC2=O)C(=O)N[C@@H](C(C)C)C(=O)N[C@@H](Cc2ccc(O)cc2)C(=O)N[C@@H](Cc2ccccc2)C(=O)N1)[C@@H](C)O)C(=O)N[C@@H](Cc1c[nH]c2ccccc12)C(=O)O [Example 5, [Thr^18, Asn^19]-ET-1] (H-CSCSSLMDKECVYFCHLTNIW-OH; disulfide 1-15, 3-11) | 9 | < 0.1 | – | – | – | – | –

SMILES | Receptor binding activity (specific activity) [2] | Maximum constriction (% 60 mM KCl) [1] [% 60 mM KCl] | Constrictor activity (specific activity) ([1]; porcine coronary artery) | Relative potency [3] | pA2 [3] | pA2 [3, 4] | EC50 ([1]; porcine coronary artery, read-out: EC50 (% KCl), concentration which induces 50% of the constriction of the porcine coronary artery due to 60 mM KCl) [nM] | IC50 ([2]; read-out: IC50, concentration required to prevent 50% of the binding of I125-ET1 to the porcine myocardial membrane fraction) [nM]
CC[C@H](C)[C@H](NC(=O)[C@H](CC(C)(C)C)NC(=O)[C@@H](NC(=O)[C@H](CC(C)C)NC(=O)[C@H](Cc1c[nH]cn1)NC(=O)[C@@H]1CSSC[C@H](N)C(=O)N[C@@H](CO)C(=O)N[C@H]2CSSC[C@H](NC(=O)[C@H](CCC(=O)O)NC(=O)[C@H](CCCCN)NC(=O)[C@H](CC(=O)O)NC(=O)[C@H](CCSC)NC(=O)[C@H](CC(C)C)NC(=O)[C@H](CO)NC(=O)[C@H](CO)NC2=O)C(=O)N[C@@H](C(C)C)C(=O)N[C@@H](Cc2ccc(O)cc2)C(=O)N[C@@H](Cc2ccccc2)C(=O)N1)[C@@H](C)O)C(=O)N[C@@H](Cc1c[nH]c2ccccc12)C(=O)O [Example 4, [Thr^18, γLeu^19]-ET-1] (H-CSCSSLMDKECVYFCHLT[tBuAla]IW-OH; disulfide 1-15, 3-11) | 23 | 0 | < 0.1 | – | – | 7.4 | – | –
CC[C@H](C)[C@H](NC(=O)[C@H](CC(C)C)NC(=O)[C@@H](NC(=O)[C@H](CC(C)C)NC(=O)[C@H](Cc1c[nH]cn1)NC(=O)[C@@H]1CSSC[C@H](N)C(=O)N[C@@H](CO)C(=O)N[C@H]2CSSC[C@H](NC(=O)[C@H](CCC(=O)O)NC(=O)[C@H](CCCCN)NC(=O)[C@H](CC(=O)O)NC(=O)[C@H](CCSC)NC(=O)[C@H](CC(C)C)NC(=O)[C@H](CO)NC(=O)[C@H](CO)NC2=O)C(=O)N[C@@H](C(C)C)C(=O)N[C@@H](Cc2ccc(O)cc2)C(=O)N[C@@H](Cc2ccccc2)C(=O)N1)[C@@H](C)O)C(=O)N[C@@H](Cc1c[nH]c2ccccc12)C(=O)O [Example 1, [Thr^18, Leu^19]-ET-1] (H-CSCSSLMDKECVYFCHLTLIW-OH; disulfide 1-15, 3-11) | 40 | 4 | < 0.1 | – | – | 7.7 | – | –
CC[C@H](C)[C@H](NC(=O)[C@H](CC(=O)O)NC(=O)[C@H](CC(C)C)NC(=O)[C@H](Cc1c[nH]cn1)NC(=O)[C@@H]1CSSC[C@H](N)C(=O)N[C@@H](CO)C(=O)N[C@H]2CSSC[C@H](NC(=O)[C@H](CCC(=O)O)NC(=O)[C@H](CCCCN)NC(=O)[C@H](CC(=O)O)NC(=O)[C@H](CCSC)NC(=O)[C@H](CC(C)C)NC(=O)[C@H](CO)NC(=O)[C@H](CO)NC2=O)C(=O)N[C@@H](C(C)C)C(=O)N[C@@H](Cc2ccc(O)cc2)C(=O)N[C@@H](Cc2ccccc2)C(=O)N1)C(=O)N[C@H](C(=O)N[C@@H](Cc1c[nH]c2ccccc12)C(=O)O)[C@@H](C)CC [ET-1, endothelin-1, reference compound] | […] | 120 | […] | – | – | – | 1.6 | […]
